Consider two compounds from article PMC11728707, “Chemical Composition and Assessment of the Anti-Inflammatory, Antioxidant, Cytotoxic and Skin Enzyme Inhibitory Activities of Citrus sinensis (L.) Osbeck Essential Oil and Its Major Compound Limonene” (Pharmaceuticals, 2024).

The experiment concerns the target T1, tyrosinase.
T1 construct: gene PPO3
Nature of the experiment: spectrophotometric L-DOPA oxidation assay, […] nm. The experiment is classed as biochemical. Particulars: 5 mM L-DOPA, 50 mM phosphate pH 6.5, 37 °C.

`O=c1c(O)c(-c2ccc(O)c(O)c2)oc2cc(O)cc(O)c12` [Quercetin] returned a Tyrosinase of 111.03 ± 0.1 µg/mL.
As for `C=C(C)[C@H]1CC=C(C)CC1` [Limonene], the figure is 86.07 ± 1.53 µg/mL.
